Assay [1] concerns 293-EBNA cells. Briefly: Transfection in vitro, luciferase plasmid pTG11056. It is filed as cell-based. The conditions noted are these: charge ratio around 1. How it is done: Cells were plated on 24 well plates at a density of 4×10^4 (293-EBNA ) or 7×10^4 (HeLa, Renca) cells/well in DMEM supplemented with 10% FCS. The next day, the medium was replaced by 200 μl serum-free DMEM and plasmid (PTG11056 or pTG11236)/peptide complexes or plasmid/peptide/lipid complexes were prepared in 30 μl 0.9% NaCl or 5% glucose. After 20 min at room temperature these complexes were added to the cells which were then incubated for 2-3 h at 37° C. and 5% CO2 before 1 ml serum-containing DMEM was added. Approximately 20 hours later, cells were lysed by addition of 100 μl 1× Promega lysis buffer, 20 μl of the lysates were analysed for luciferase activity. Proteins were quantified with the bicinchonic acid (BCA) colorimetric method (Smith, Anal. Biochem. 150 (1985), 76-85).
4×10^4 293-EBNA cells, plated on 24 well plates the day before, were transfected with 0.5 μg, 0.1 μg, 0.05 μg arid 0.01 μg of the plasmid pTG11056. The plasmid was either mixed with completely or uncompletely DNA-complexing amounts of ppTG1 in 30 μl 5% glucose and after 20 min at room temperature the mixture was added to the cells which were incubated in 200 μl serum-free medium. Further, pTG11056 was formulated with the established transfection reagents Lipofectin and PEI. […] After twenty hours, cells were washed and luciferase activity was determined in ⅕of the lysed cells.

For assay [2], the system named is plasmid pTG11236. Nature of the assay: Gel retardation assay (DNA binding activity). How it is done:
3 μg of the plasmid pTG11236 were incubated with increasing amounts of the respective peptide in a final volume of 30 μl with 0.9% NaCl. After 20 min of incubation at room temperature, 6 μl 5× loading buffer (glycerol and bromphenol blue in TAE buffer) were added and 10 μl of these solutions were analyzed on a 1% agarose gel in the presence of ethidium bromide.
The ability of ppTG1 peptide to complex DNA was analyzed by gel retardation assays. […] After 20 minutes incubation at room temperature, loading buffer was added and 10 μl of the resulting solution were analyzed on a 1% agarose gel.
ppTG1 derivatives as they are indicated in Materials and Methods, were tested for their capacity to bind plasmid DNA by gel retardation assays.

The nature of assay [3]: Liposome leakage assay, calcein-containing POPC liposomes. The assay is classed as biochemical. Here is the method: Leakage activity was plotted against peptide concentration.
The peptide ppTG1 was tested for its capacity to cause membrane disruption in a liposome leakage assay with POPC liposomes containing the fluorescent product calcein. […] Release of calcein by Triton X-100 treatment was taken as positive control reaction, incubation with water served as negative control. The membranolytic activity of peptide ppTG1 (20 μg as starting point) was compared with those of equal quantities (20 μg) of JTS-1, JTS-1-K13 and KALA.

Assay [4] is described as follows: Liposome leakage assay, POPC/cholesterol 3:2 liposomes. The conditions noted are these: POPC/chol liposomes, pH 5. The assay is classed as biochemical.
Assay [5] relates to WiDr, MDA-MB-435S, SW480 and LoVo. Nature of the assay: Transfection of human tumor cell lines. It is filed as cell-based. The conditions noted are these: peptide/plasmid pTG11236 complexes, luciferase day 1. How it is done: WiDr (ATCC CCL-218), MDA-MB-435S (ATCC HTB-129), SW480 (ATCC CCL-228) and LoVo cell (CCL-229) were cultivated in the appropriate medium with 10% fetal calf serum, 1% gentamycine, 1% glutamine and 3 g/l glucose, in an incubator at 37° C. and 5% CO2.
The transfection efficiencies with plasmid/ppTG1 complexes were tested in the human tumor cells WiDr, MDA-MB-435S, SW480 and LoVo (ATCC) in comparison to lipofectin, PEI and pcTG90/DOPE (1:1) [±] 5.

In assay [6] the test system is HeLa cells. Nature of the assay: Transfection in the presence of Bafilomycin A. The assay is classed as cell-based. The following applies: 175 nM Bafilomycin A, 150 ng pTG11236. Here is the method:
Transfection in the presence of Bafilomycin A: 6×10^4 HeLa cells were plated on 24 well plates. Cells were treated with 175 nM Bafilomycin A 30 min before and throughout the transfection (1 h incubation of cells with transfection mix in the absence of serum).
Bafilomycin A is a specific inhibitor of the vacuolar proton pump. Treatment with Bafilomycin inhibits the acidification of late endosomes. HeLa cells were treated with Bafilomycin A (175 nM) 30 min before and throughout the transfection (1 h incubation with transfection complexes in the absence of serum). 6×10^4 cells were transfected with 150 ng pTG11236 using PEI or ppTG1. The luciferase assay was performed 1 day after transfection.

Results on 1 sequence are retold here after patent US20040132188A1, “Use of non-complexing peptides for the preparation of a composition for transfection of a polynucleotide into a cell and compositions useful in gene therapy” (priority 2001, published 2004).

“Also recorded” adds a separate entry of the source. Ends that are not written are not given here.

For GLFKALLKLLKSLWKLLLKA, in assay [1] (0.05 μg pTG11056 with 0.065 μg peptide), the transfection efficiency result was “high transfection efficiency”. The luciferase activities entry in assay [1] (0.5 μg pTG11056 with 0.65 μg peptide) was “higher than those observed with complexes formed with Lipofectin or PEI”. In assay [2] (1 μg peptide (0.35 nmol), 3 μg pTG11236), this sequence displayed a DNA complexed of 50%. Moreover, the “amount of peptide giving retardation of plasmid” value in assay [2] (3 μg plasmid DNA pTG11236 (0,8 pmol)) is 4 µg. In addition, the membrane disruption result in assay [3] (pH 5) and in assay [3] (pH 7) was “capable of causing membrane disruption” throughout. In assay [4], the “liposome leakage activity / calcein release” value is listed as “efficiently liberate calcein”. The “transfection of human tumor cell lines” value in assay [5] is given as “successfully transfected; also recorded: can efficiently transfect”. Besides, the “effect of Bafilomycin A on transfection efficiency” value in assay [6] is “did not influence”.
